Experimental findings from patent publication US11596622B2, “Mazindol treatment for heroin dependence and substance use disorder” (NLS Pharmaceutics AG, priority 2017, dated 2023) are described below.

For assay [1], the target named is T1, M1(h) (Homo sapiens, UniProt P11229).
T1 construct: Eurofins CEREP
T1 sequence (P11229 1-460): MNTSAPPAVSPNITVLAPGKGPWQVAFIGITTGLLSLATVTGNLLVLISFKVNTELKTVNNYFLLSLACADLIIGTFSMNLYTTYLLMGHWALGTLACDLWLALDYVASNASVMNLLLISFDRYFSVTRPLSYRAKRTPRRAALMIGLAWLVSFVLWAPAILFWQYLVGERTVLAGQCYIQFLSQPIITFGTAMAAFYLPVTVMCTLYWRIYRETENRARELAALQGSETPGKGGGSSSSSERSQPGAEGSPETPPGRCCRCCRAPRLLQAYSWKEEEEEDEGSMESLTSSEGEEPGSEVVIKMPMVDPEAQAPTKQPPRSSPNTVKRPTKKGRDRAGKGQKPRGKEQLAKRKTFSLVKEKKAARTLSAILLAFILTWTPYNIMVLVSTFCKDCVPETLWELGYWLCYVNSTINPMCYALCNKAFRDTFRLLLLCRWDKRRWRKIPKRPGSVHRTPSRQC
The experiment in a line: Radioligand binding, M1 (Eurofins CEREP). To be noted: 1.0 × 10^−05 M; antagonist radioligand. An excerpt: (§1) Table A discloses mazindol and Met tested at […] and the compound binding calculated as a percent inhibition of the binding of a radioactively labeled ligand specific for each target (Eurofins CEREP, France).
(§2) An inhibition or stimulation of more than 50% is considered a significant effect of the test compounds. Fifty percent is a common cut-off for further investigation (i.e. determination of IC50 or EC50 values from concentration-response curves). Tables B and C display the binding profiles for Mazindol and Met.
(§3) The results are expressed as a percent of control specific binding obtained in the presence of the test compounds:
(§4) [formula] and as a percent inhibition of control specific binding obtained in the presence of the test compounds: […]

Assay [2] concerns the target T2, 5-HT transporter(h) (Homo sapiens, UniProt P31645).
T2 construct: Eurofins CEREP
The experiment in a line: Radioligand binding, 5-HT transporter (Eurofins CEREP). The following applies: 1.0 × 10^−05 M; antagonist radioligand.
Text: as §1
(§5) An inhibition or stimulation of more than 50% is considered a significant effect of the test compounds. Fifty percent is a common cut-off for further investigation (i.e. determination of IC50 or EC50 values from concentration-response curves).
as §3, §4

The target of assay [3] is T3, Dopamine transporter(h) (Homo sapiens, UniProt Q01959).
T3 construct: Eurofins CEREP
The experiment in a line: Radioligand binding, dopamine transporter (Eurofins CEREP). The following applies: 1.0 × 10^−05 M; antagonist radioligand.
Text: as §1, §5, §3, §4

Assay [4] addresses T4, k (KOP) (Rattus norvegicus, UniProt P34975).
T4 construct: Eurofins CEREP
The experiment in a line: Radioligand binding, κ opioid receptor (Eurofins CEREP).
Text: as §1, §2, §3, §4

Assay [5] deals with T5, 5-HT1A(h) (Homo sapiens, UniProt P08908).
T5 construct: Eurofins CEREP
T5 sequence (P08908 1-422): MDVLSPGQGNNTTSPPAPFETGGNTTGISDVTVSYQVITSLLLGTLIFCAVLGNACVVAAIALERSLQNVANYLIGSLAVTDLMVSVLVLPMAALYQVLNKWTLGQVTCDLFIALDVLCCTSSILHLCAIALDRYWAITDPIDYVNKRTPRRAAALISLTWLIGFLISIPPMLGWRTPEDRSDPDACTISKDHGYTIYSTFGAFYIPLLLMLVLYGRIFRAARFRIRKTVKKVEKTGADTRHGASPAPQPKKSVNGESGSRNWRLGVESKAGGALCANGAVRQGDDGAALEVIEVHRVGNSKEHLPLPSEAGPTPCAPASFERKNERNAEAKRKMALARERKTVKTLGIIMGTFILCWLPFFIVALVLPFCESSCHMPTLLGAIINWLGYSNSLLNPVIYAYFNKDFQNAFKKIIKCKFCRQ
The assay is described as follows: Radioligand binding, 5-HT1A (Eurofins CEREP). The following applies: 1.0 × 10^−05 M; agonist radioligand.
Text: as §1, §5, §3, §4

Assay [6] has as its target T6, H1(h) (Homo sapiens, UniProt P35367).
T6 construct: Eurofins CEREP
The experiment in a line: Radioligand binding, H1 (Eurofins CEREP). The following applies: 1.0 × 10^−05 M; antagonist radioligand.
Text: as §1, §2, §3, §4

The target in assay [7] is T7, μ (MOP) (h) (Homo sapiens, UniProt P35372).
T7 construct: Eurofins CEREP
The assay is described as follows: Radioligand binding, μ opioid receptor (Eurofins CEREP).
Text: as §1, §2, §3, §4

For assay [8], the target named is T8, Norepinephrine transporter (h) (Homo sapiens, UniProt P23975).
T8 construct: Eurofins CEREP
The assay is described as follows: Radioligand binding, norepinephrine transporter (Eurofins CEREP). The following applies: 1.0 × 10^−05 M; antagonist radioligand.
Text: as §1, §2, §3, §4

[9] abbreviates: 1.0 × 10^−05 M, agonist radioligand.

T7 sequence (P35372 whole entry): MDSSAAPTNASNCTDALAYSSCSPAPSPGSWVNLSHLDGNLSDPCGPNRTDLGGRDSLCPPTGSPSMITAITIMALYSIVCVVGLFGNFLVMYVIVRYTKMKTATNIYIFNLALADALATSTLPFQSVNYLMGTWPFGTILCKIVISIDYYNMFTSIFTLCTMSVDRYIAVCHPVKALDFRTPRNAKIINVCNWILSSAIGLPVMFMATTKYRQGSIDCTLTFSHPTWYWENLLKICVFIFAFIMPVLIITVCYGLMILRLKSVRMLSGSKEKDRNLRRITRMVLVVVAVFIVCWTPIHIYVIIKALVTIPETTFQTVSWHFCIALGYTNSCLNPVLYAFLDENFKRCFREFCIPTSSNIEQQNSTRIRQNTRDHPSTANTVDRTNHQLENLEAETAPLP
T4 sequence (P34975 whole entry): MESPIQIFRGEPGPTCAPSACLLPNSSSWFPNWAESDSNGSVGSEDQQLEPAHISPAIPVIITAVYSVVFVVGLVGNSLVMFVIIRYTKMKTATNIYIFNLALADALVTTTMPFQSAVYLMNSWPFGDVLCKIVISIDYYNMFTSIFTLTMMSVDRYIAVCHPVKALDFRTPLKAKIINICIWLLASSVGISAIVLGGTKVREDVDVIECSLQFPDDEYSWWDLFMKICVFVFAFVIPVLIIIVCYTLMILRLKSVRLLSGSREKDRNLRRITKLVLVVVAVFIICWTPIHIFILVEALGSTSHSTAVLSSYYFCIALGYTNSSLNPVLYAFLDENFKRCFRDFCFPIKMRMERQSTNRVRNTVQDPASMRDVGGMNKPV
T6 sequence (P35367 whole entry): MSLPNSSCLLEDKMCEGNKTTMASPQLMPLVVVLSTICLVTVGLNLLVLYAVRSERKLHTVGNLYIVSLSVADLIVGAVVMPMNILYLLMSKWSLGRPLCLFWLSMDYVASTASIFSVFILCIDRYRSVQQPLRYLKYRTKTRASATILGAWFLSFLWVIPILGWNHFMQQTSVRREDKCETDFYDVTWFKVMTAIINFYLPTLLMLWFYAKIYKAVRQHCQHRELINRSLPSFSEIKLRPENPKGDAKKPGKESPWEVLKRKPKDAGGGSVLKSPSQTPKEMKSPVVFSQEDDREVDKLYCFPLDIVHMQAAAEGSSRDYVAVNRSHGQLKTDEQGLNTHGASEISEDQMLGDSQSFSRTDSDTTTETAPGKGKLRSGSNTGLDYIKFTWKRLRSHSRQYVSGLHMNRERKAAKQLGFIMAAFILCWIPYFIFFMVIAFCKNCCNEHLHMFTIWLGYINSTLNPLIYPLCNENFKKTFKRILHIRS
T3 sequence (Q01959 whole entry): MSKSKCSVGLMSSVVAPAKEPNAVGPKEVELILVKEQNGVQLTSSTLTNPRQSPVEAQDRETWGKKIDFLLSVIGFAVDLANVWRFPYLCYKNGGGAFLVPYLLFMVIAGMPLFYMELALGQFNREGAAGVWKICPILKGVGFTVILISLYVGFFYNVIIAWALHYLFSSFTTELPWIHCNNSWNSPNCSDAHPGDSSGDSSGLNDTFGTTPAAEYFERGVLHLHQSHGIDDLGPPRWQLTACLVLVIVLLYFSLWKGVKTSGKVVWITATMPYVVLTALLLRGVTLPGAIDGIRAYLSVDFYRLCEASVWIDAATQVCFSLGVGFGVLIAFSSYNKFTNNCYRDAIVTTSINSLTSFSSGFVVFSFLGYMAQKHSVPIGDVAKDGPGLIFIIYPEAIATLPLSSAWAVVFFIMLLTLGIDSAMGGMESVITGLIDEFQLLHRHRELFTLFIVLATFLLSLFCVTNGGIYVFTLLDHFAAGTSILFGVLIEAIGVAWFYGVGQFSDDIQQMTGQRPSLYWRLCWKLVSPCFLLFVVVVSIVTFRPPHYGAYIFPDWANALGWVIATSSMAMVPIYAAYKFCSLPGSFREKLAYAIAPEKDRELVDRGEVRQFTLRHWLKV
T2 sequence (P31645 whole entry): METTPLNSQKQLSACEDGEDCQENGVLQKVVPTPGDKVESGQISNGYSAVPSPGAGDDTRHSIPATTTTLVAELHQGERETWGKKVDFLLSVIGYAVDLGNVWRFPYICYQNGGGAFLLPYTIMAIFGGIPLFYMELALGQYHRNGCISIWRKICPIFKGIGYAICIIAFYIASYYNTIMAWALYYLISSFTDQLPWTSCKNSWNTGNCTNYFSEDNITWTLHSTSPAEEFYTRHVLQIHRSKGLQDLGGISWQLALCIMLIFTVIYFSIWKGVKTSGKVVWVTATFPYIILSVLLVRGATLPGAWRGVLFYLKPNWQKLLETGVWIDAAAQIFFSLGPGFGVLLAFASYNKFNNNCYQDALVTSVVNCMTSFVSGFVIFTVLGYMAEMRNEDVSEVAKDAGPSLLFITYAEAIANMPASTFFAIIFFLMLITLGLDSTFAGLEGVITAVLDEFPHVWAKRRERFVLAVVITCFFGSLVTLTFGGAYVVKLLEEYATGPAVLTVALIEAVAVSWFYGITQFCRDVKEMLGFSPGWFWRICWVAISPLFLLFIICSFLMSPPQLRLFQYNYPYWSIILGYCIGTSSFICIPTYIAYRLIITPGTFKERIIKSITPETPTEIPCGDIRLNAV
T8 sequence (P23975 whole entry): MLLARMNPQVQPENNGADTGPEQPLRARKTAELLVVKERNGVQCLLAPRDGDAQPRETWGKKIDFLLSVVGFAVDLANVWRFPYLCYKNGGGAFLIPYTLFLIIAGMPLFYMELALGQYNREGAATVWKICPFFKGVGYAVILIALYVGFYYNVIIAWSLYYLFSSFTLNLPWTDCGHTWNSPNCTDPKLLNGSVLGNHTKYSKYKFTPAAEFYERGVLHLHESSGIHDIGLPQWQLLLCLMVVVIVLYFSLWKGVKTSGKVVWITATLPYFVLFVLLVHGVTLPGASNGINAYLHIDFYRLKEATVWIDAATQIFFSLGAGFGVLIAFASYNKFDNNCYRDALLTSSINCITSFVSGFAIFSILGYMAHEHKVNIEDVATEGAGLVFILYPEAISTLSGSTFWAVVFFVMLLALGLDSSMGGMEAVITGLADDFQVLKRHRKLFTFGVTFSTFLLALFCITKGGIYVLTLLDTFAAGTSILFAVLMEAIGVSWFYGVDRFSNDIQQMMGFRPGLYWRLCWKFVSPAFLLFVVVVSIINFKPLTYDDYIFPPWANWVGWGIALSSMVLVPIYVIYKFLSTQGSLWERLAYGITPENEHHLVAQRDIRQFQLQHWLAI

For the compound `NCCN1C(=O)c2ccccc2C1(O)c1ccc(Cl)cc1` (stereo not shown) [Mazindol Metabolite, 2-(2-Aminoethyl)-3-(p-chlorophenyl)-3-hydroxyphthalimidine], the “percent inhibition of the binding of a radioactively labeled ligand” value in assay [1] turned out to be 50.4%; in assay [2] it was 98.5%; in assay [3], 101%; in assay [4] (setting [9]), 53.3%; in assay [5] it was 86.3%; in assay [6] it was 75.5%. For the same compound, the “percent inhibition of the binding of a radioactively labeled ligand” value in assay [7] (setting [9]) turned out to be 87.9%; in assay [8], 100.2%. Also, the “affinity for κ-opioid receptors” value in assay [4] was “modest affinity”. Also, the “affinity for μ-opioid receptors” value in assay [7] (compared with amphetamines) is reported as “higher affinity”.
